Assay [1] deals with male mice (Slc: ddy). Put plainly: Analgesic effect examined by acetic acid-writhing test. The note with it: subcutaneous injection 30 minutes before 0.6% acetic acid i.p., writhings counted within 10 minutes, 7 mice per group. The class given is in vivo. On the procedure:
Example 8 Analgesic Effect Examined by Acetic Acid- Writhing Test:
Male mice (Slc: ddy) aged 5 weeks were divided into groups each having 7 animals. […] After 30 minutes, 0.6% acetic acid was intraperitoneally administered to each mouse in a dose of 0.1 ml/10 g. 10 minutes thereafter, the writhings thus induced were counted within 10 minutes. […] The acetic acid-writhing test was conducted according to a method reported by R. Koster, M. Anderson and E.I. Debeer [refer to Fed. Proc., 18, 412 (1959)].
In general terms: Writhing tests count abdominal constrictions after an irritant is injected.

Assay [2] concerns male mice (Slc: ddy). Put plainly: Analgesic examination by radiant heat-stimulation test (tail irradiation, pain threshold). It is filed as in vivo. The conditions noted are these: for analgesic effect (pain threshold): range 0.03 to 1.0 mg/kg. On the procedure: Example 6 Analgesic Examination by Radiant Heat-Stimulation Test:
Each group had 7 animals. An hour after the injection, the analgesic effect of each compound was examined by radiant heat-stimulation test [refer to A.G. Hayes, M.J. Sheehan, M.B. Tyers; Brit. J. Pharmacol., 91, 111 - 115 (1987)]. Namely, the tail of each mouse was irradiated with intense light and the time required until the animal switched its tail was measured. The value thus measured was referred to as the pain threshold.

Assay [3] relates to extirpated guinea pig ileum pieces. Put plainly: Transmural electric stimulation test on an extirpated guinea pig ileum piece (smooth muscle contraction). The class given is cell-based. The note with it: for pD₂: transmural electric stimulation 0.1 Hz, smooth muscle contraction. The procedure:
Example 7 Transmural Electric Stimulation Test on an Extirpated Guinea Pig Ileum Piece:
The effects of the compounds were examined by applying transmural electric stimulation (0.1 Hz) to extirpated guinea pig ileum pieces while using the smooth muscle contraction as an indication [refer to H.K. Kopsterlitz, A.A. Waterfield; Annu. Rev. Pharmacol., 15, 29 - 47 (1975)].
The data shown in Table 1 were calculated according to a method reported by Arunlakshana and Schild [refer to 0. Arunlakashana, H.O. Schild; Brit. J. Pharmacol., 14, 48 - 58 (1959)]. Each value is expressed in mean ± standard deviation.

[4] abbreviates: subcutaneous, an hour after the injection, p < 0.01 in Dunnett's t-test.
Where [5] appears, read: subcutaneous, an hour after the injection.
Setting [6] is: antagonism by naloxone, method of Arunlakshana and Schild, mean ± standard deviation.

Like-named read-outs stand apart in the source and are kept apart here.

In turn, `CCC(=O)Oc1ccc2c3c1O[C@H]1[C@H](SC(=O)CC)C=C[C@H]4[C@@H](C2)N(CC2CC2)CC[C@@]341` [Compound IX, 3-propionyl-6β-propionylthio-cyclopropylmethylnormorphine] came in with an ED₅₀ in the assay on male mice (Slc: ddy) [1] of 0.047 mg/kg.
Regarding `CC(=O)S[C@@H]1C=C[C@H]2[C@H]3Cc4ccc(O)c5c4[C@@]2(CCN3CC2CC2)[C@H]1O5` [Compound VI, 6β-acetylthio-N-cyclopropylmethylnormorphine], the “dose with statistically significant analgesic effect” value in the assay on male mice (Slc: ddy) [2] (setting [4]) is given as 1.0 mg/kg. Further, the “analgesic effect (pain threshold)” value in the assay on male mice (Slc: ddy) [2] (setting [5]) is listed as “analgesic effect depending on dose”. Also, the “pA₂ (naloxone)” value in assay [3] (setting [6]) came to 7.75 ± 0.12. This compound gave a pD₂ in assay [3] (mean ± standard deviation) of 8.38 ± 0.06.
`CC(=O)Oc1ccc2c3c1O[C@H]1[C@H](SC(C)=O)C=C[C@H]4[C@@H](C2)N(CC2CC2)CC[C@@]341.Cl` [Compound VII, 3-acetyl-6β-acetylthio-N-cyclopropylmethylnormorphine hydrochloride]: the “dose with statistically significant analgesic effect” value with male mice (Slc: ddy) [2] (setting [4]) worked out at 1.0 mg/kg. The “analgesic effect (pain threshold)” value in the assay on male mice (Slc: ddy) [2] (setting [5]) is “analgesic effect depending on dose”. Besides, the “pA₂ (naloxone)” value in assay [3] (setting [6]) is 7.80 ± 0.13. This compound also gave a pD₂ in assay [3] (mean ± standard deviation) of 9.01 ± 0.16. In the assay on male mice (Slc: ddy) [1], this compound returned an ED₅₀ of 0.062 mg/kg.
With `CN1CC[C@]23c4c5ccc(O)c4O[C@H]2[C@@H](O)C=C[C@H]3[C@H]1C5.Cl` [Morphine hydrochloride, reference compound], the “dose with statistically significant analgesic effect” value with male mice (Slc: ddy) [2] (mouse, in vivo, sc) is at least 3.2 mg/kg. Besides, the “pA₂ (naloxone)” value in assay [3] is given as 8.45 ± 0.13.
Take `CC(C)=CCN1CCC2(C)c3cc(O)ccc3CC1C2C` (stereo not shown) [Pentazocine, reference compound]: the ED50 in the assay with male mice (Slc: ddy) [1] (Mus musculus, sc, read-out: ED₅₀) stood at 0.869 mg/kg.
